Laboratory results as given in ChEMBL document CHEMBL1122529, “Synthesis of 5-aryl-2H-tetrazoles, 5-aryl-2H-tetrazole-2-acetic acids, and [(4-phenyl-5-aryl-4H-1,2,4-triazol-3-yl)thio]acetic acids as possible superoxide scavengers and antiinflammatory agents” (1984).

How the values were obtained:
Type in all cases: functional
Rattus norvegicus [1] = organism: Rattus norvegicus; experiment: In Vitro superoxide scavenging activity at a concentration of 1.0 x 10E4 M.
Rattus norvegicus [2] = experiment: Percentage inhibition of Carrageenan-induced rat paw edema at a concentration of 32 mg/kg
Rattus norvegicus [3] = organism: Rattus norvegicus; experiment: In Vitro superoxide scavenging activity by the analysis of variance method at concentration of 2.0 x 10E4 M
Rattus norvegicus [4] = organism: Rattus norvegicus; experiment: In Vitro superoxide scavenging activity by the analysis of variance method at concentration of 0.1 x 10E4 M
Rattus norvegicus [5] = organism: Rattus norvegicus; experiment: In Vitro superoxide scavenging activity by the analysis of variance method at concentration of 0.5 x 10E4 M
Rattus norvegicus [6] = experiment: Percentage inhibition of Carrageenan-induced rat paw edema at a concentration of 0.3 mg/kg
Rattus norvegicus [7] = experiment: Percentage inhibition of reverse passive Arthus reaction was reported at a concentration of 30 mg/kg.
Rattus norvegicus [8] = experiment: The mean index of reverse passive Arthus reaction was calculated 3 h-postinjection at a concentration of 30 mg/kg.

Compound `COc1ccc(-c2nnc(SCC(=O)O)n2-c2ccccc2)cc1OC` has an inhibition (Rattus norvegicus [1]) of 0%.

In the case of `O=C(O)Cn1nnc(-c2ccccc2)n1`, the inhibition (Rattus norvegicus [1]) is reported as 0%.

In the case of `COc1ccc(-c2nn[nH]n2)cc1OC`, the inhibition (Rattus norvegicus [1]) is reported as 0%.

`CCCCC1C(=O)N(c2ccccc2)N(c2ccccc2)C1=O` [PHENYLBUTAZONE] showed an inhibition in vivo at 32 mg/kg (Rattus norvegicus [2]) of 47%.

In the case of `c1ccc(-c2nnn[nH]2)cc1`, the inhibition (Rattus norvegicus [1]) is reported as 0%.

Compound `Oc1ccc(-c2nn[nH]n2)cc1` has an inhibition (Rattus norvegicus [3]) of 0%.

`O=C(O)Cn1nnc(-c2ccc(O)cc2)n1` showed an inhibition (Rattus norvegicus [1]) of 0%.

`COc1cc(-c2nn[nH]n2)cc(OC)c1OC` gave an inhibition (Rattus norvegicus [1]) of 0%.

Work on `O=C(O)Cn1nnc(-c2ccc(O)c(O)c2)n1` yielded an inhibition (Rattus norvegicus [4]) of 0%, an inhibition (Rattus norvegicus [5]) of 7.9% and an inhibition (Rattus norvegicus [1]) of 18.8%.

`COc1ccc(-c2nnc(SCC(=O)O)n2-c2ccccc2)cc1` was tested, and the inhibition (Rattus norvegicus [1]) was 0%.

For `O=C(O)CSc1nnc(-c2ccc(O)c(O)c2)n1-c1ccccc1`, the inhibition (Rattus norvegicus [4]) was 8.3%, the inhibition (Rattus norvegicus [5]) was 11.8% and the inhibition (Rattus norvegicus [1]) was 21.5%.

For `COc1cc(-c2nnc(SCC(=O)O)n2-c2ccccc2)cc(OC)c1OC`, the inhibition (Rattus norvegicus [1]) was 0%.

In the case of `Oc1ccc(-c2nn[nH]n2)cc1O`, the inhibition (Rattus norvegicus [4]) is reported as 6.9%, the inhibition (Rattus norvegicus [5]) is reported as 23% and the inhibition (Rattus norvegicus [1]) is reported as 37.5%.

`COc1ccc(-c2nn[nH]n2)cc1` was tested, and the inhibition (Rattus norvegicus [1]) was 0%.

`C[C@@H]1C[C@H]2[C@@H]3CCC4=CC(=O)C=C[C@]4(C)[C@@]3(F)[C@@H](O)C[C@]2(C)[C@@]1(O)C(=O)CO` [DEXAMETHASONE] showed an inhibition in vivo at 0.3 mg/kg (Rattus norvegicus [6]) of 69%.

For `O=C(O)CSc1nnc(-c2cc(O)c(O)c(O)c2)n1-c1ccccc1`, the inhibition (Rattus norvegicus [4]) was 16.7%, the inhibition (Rattus norvegicus [5]) was 22.1% and the inhibition (Rattus norvegicus [1]) was 65.7%. The inhibition in vivo at 30 mg/kg (Rattus norvegicus [7]) was -28.2%, the inhibition in vivo at 32 mg/kg (Rattus norvegicus [2]) was 18% and the Mean index (Rattus norvegicus [8]) was 52.

`O=C(O)CSc1nnc(-c2ccccc2)n1-c1ccccc1` gave an inhibition (Rattus norvegicus [1]) of 0%.

For `O=C(O)CSc1nnc(-c2ccc(O)cc2)n1-c1ccccc1`, the inhibition (Rattus norvegicus [1]) was 11.6%.

`COc1cc(-c2nnn(CC(=O)O)n2)cc(OC)c1OC` was tested, and the inhibition (Rattus norvegicus [1]) was 0%.

With `COc1ccc(-c2nnn(CC(=O)O)n2)cc1OC` the inhibition (Rattus norvegicus [1]) was 0%.

`Oc1cc(-c2nn[nH]n2)cc(O)c1O` showed an inhibition (Rattus norvegicus [4]) of 16%, an inhibition (Rattus norvegicus [5]) of 48.4% and an inhibition (Rattus norvegicus [1]) of 66.9%. The inhibition in vivo at 30 mg/kg (Rattus norvegicus [7]) was -5%, the inhibition in vivo at 32 mg/kg (Rattus norvegicus [2]) was 6% and the Mean index (Rattus norvegicus [8]) was 42.6.

Compound `O=C(O)Cn1nnc(-c2cc(O)c(O)c(O)c2)n1` has an inhibition (Rattus norvegicus [4]) of 15.3%, an inhibition (Rattus norvegicus [5]) of 55.9% and an inhibition (Rattus norvegicus [1]) of 78%. For the same compound, the inhibition in vivo at 30 mg/kg (Rattus norvegicus [7]) was -28.7%, the inhibition in vivo at 32 mg/kg (Rattus norvegicus [2]) was 14% and the Mean index (Rattus norvegicus [8]) was 52.

Work on `COc1ccc(-c2nnn(CC(=O)O)n2)cc1` yielded an inhibition (Rattus norvegicus [1]) of 0%.
